Experimental data published in patent publication US10828303B2, “Composition comprising combination of TRH analog with arundic acid, and pharmaceutically acceptable salt of arundic acid” (Brivention Pharmaceutical (Shanghai) Inc., priority 2016, dated 2020).

Assays:
[1] = Body weight changes in four-vessel occlusion rats; format: in vivo, rat; details: for Body weight, Day 7 / Body weight, Day 14 / Body weight, Day 21 / Body weight, Day 28 / Body weight, Day 0: Mean ± S.E.; for Body weight, Day 7 / Body weight, Day 14 / Body weight, Day 21 / Body weight, Day 28: 4-VO rats, oral daily: arundic acid 30, taltirelin 10, combination 10+3 mg/kg/day; for Body weight, Day 0: before administration, one week after 4-VO surgery, groups later given arundic acid 30, taltirelin 10, combination 10+3 mg/kg/day; for Body weight change in words: compared with Group 2 (control), until day 28, arundic acid 30, taltirelin 10, combination 10+3 mg/kg/day
Experimental: 7-week-old (body weight: 200 to 240 g) male Crl: Wistar rats were used for an experiment after acclimation for 1 week or more. During the experimental period, the rats were raised in an animal room maintained at a room temperature of 23±1° C. and a humidity of 55±5%, and illuminated for 12 hours (6:30-18:30); with ad libitum access to food (Oriental Yeast, CRF-1) and water.
Arundic acid ((R)-(−)-2-propyloctanoic acid: Lot No. CS04818-503, M.W.186.29, specific gravity: 0.908), which is an astrocyte function-improving agent, used in this test is a product synthesized by Chemical Soft Co., Ltd. Taltirelin hydrate (hereinafter referred to as taltirelin, M.W.463.47: N-[(4S)-1-methyl-2,6-dioxohexahydropyrimidine-4-carbonyl]-L-histidyl-L-prolinamide (Lot No. N16P)), which is a ataxia-improving agent, used in this test is a product purchased from Matrix Scientific. When arundic acid was to be administered at a dose of 30 mg/kg/5 mL, 1.61 mL of 1N NaOH was added to 300 mg (306 μL) of arundic acid to dissolve the arundic acid, and 48.084 mL of water or 0.5% CMC (carboxymethyl cellulose) was added to the resulting solution to make a total volume of 50 mL. In the experiment, a 10-fold concentrated arundic acid solution was prepared and adjusted for the concentration before use. When taltirelin was to be administered at a dose of 3 mg/kg or 10 mg/kg, taltirelin was dissolved in distilled water in a volume of 5 ml/kg. The test drug(s) were orally administered for 28 days (including Saturdays, Sundays, and public holidays), starting from 1 week after preparation of four-vessel occlusion models.
Five groups of rats (4 to 6 rats per group) were used. The details are as follows. Group 1 is a group that was not subjected to four-vessel occlusion. Groups 2 to 5 are groups that were subjected to four-vessel occlusion.
A vertebral artery cauterization surgery was performed in accordance with the method of Pulsinelli & Brierley (Pulsinelli, W. A. and Brierley, J. B.: Stroke 10, 267, 1979). More specifically, the rats anesthetized with Nem-ravona (registered trademark) and Butal (registered trademark) were fixed in the prone position to a brain stereotaxic apparatus, and the dorsal cervical skin and muscle layer were incised to expose the first cervical vertebra. The tips of the tweezers of a bipolar coagulator (Mizuho Ikakogyo Co., Ltd.; MICROID) were inserted into the alar foramina on both sides of the first cervical vertebra, and the vertebral artery running upward toward the cerebral base was bilaterally cut off by electrocauterization. The skin was then sutured. Subsequently, the rats were fixed again in the supine position to an experimental surgical table, and the ventral cervical skin was incised. After the bilateral common carotid arteries were separated from surrounding tissues and silk thread was looped around the arteries, the skin was sutured. After completion of the surgery, the rats were returned to a cage and observed. No behavioral abnormality was confirmed.
Twenty-four hours after vertebral artery cauterization by the above method, the rats under isoflurane inhalation anesthesia were fixed in the supine position for immobilization before common carotid artery ligation on the following day. The ventral cervical skin was incised again to expose bilateral common carotid arteries. First, the right-side common carotid artery was occluded with an artery clamp or Mosquito hemostat forceps (both forceps were covered with a silicone tube to reduce stimulus to the blood vessel wall). After about 60 seconds, the left-side common carotid artery was occluded in the same manner. Since righting reflex (RR) of rats during bilateral common carotid artery occlusion, i.e., rats with brain ischemia, was lost, immobilization in the supine-position seemed unnecessary. However, sudden movements, such as walking-like motions of four limbs or lateral turning, were observed. […]

[2] = tested on: hippocampal CA1 neuronal cells; assay: HE staining of hippocampus CA1, degree of neuronal death; format: in vivo, rat; details: HE-stained specimens after 28 days of administration; arundic acid 30, taltirelin 10, combination 10+3 mg/kg/day
Experimental: After completion of the Transfer test, the rats were anesthetized, and the chest cavity was opened to expose the heart. A ventricle was incised to insert a catheter from the heart to the carotid artery, and 50 mL or more of heparinized physiological saline was perfused. Subsequently, 50 mL or more of 4% paraformaldehyde phosphate buffer was perfused. The perfusion procedures were performed with ligation of the main artery. After perfusion-fixation, the brain was removed and immersion-fixed in 4% paraformaldehyde phosphate buffer.
20-μm serial thick frozen sections were prepared from this brain using a cryostat. Alternating serial sections were stained with hematoxylin-eosin. The degree of neuronal death in the stained tissue was semi-quantitatively evaluated under an optical microscope.

CN1C(=O)C[C@@H](C(=O)N[C@@H](Cc2c[nH]cn2)C(=O)N2CCC[C@H]2C(N)=O)NC1=O [Taltirelin, N-[(4S)-1-methyl-2,6-dioxohexahydropyrimidine-4-carbonyl]-L-histidyl-L-prolinamide]
Body weight, Day 7 [1]: 256.6 ± 8.7 g
Body weight, Day 14 [1]: 272.3 ± 10.3 g
Body weight, Day 21 [1]: 291.3 ± 12.0 g
Body weight, Day 28 [1]: 307.2 ± 12.2 g
Body weight, Day 0 [1]: 228.6 ± 4.5 g
Body weight change in words [1]: favorable body weight increase
Hippocampal CA1 neuronal cell death / regeneration, in words [2]: shedding was observed

CCCCCC[C@@H](CCC)C(=O)O [Arundic acid, (R)-(−)-2-propyloctanoic acid]
Body weight, Day 7 [1]: 255.5 ± 5.1 g
Body weight, Day 14 [1]: 272.6 ± 7.4 g
Body weight, Day 21 [1]: 288.0 ± 7.1 g
Body weight, Day 28 [1]: 308.5 ± 5.0 g
Body weight, Day 0 [1]: 228.7 ± 4.9 g
Body weight change in words [1]: favorable body weight increase
Hippocampal CA1 neuronal cell death / regeneration, in words [2]: promoted regeneration of hippocampal CA1 neuronal cells
